Source: patent US20150272939A1, “Identification of Small Molecule Inhibitors of Jumonji AT-Rich Interactive Domain 1A (JARID1A) and 1B (JARID1B) Histone Demethylase” (Yale University, priority 2012, published 2015)
“And” between values parts separate entries of the source, which are not always exact repeats. Identical values can stand only once. “Also recorded” adds a separate entry of the source. Like-named read-outs stand apart in the source and are kept apart here.

Experiments:
[1] = target: T1, JMJD2E (Homo sapiens, UniProt B2RXH2); details: King et al., 2010; cited from earlier work
T1 sequence (B2RXH2 1-337 limits assumed): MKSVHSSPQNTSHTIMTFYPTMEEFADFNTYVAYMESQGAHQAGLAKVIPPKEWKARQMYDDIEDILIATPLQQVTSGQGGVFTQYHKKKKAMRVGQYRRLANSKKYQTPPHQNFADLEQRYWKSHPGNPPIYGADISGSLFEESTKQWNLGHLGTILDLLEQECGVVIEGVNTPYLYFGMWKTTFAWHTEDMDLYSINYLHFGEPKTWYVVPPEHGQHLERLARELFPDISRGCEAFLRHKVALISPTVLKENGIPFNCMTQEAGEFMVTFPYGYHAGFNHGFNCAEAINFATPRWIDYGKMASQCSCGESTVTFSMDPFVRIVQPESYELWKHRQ

[2] = system: SKBR3-S cells (trastuzumab sensitive); assay: WST-1 cell proliferation assay; format: cell-based; details: 30 μM
Procedure: (§1) The colorimetric assay (WST-1 reagent) from Roche (11644807001) was performed in 96 well white clear bottom plates (Costar, 3610). 1,000 cells were seeded per well (in quadruplicate) overnight, and PBIT was added to the cells to the indicated concentration for 72 hrs. 0.01% DMSO was included as the control. The WST-1 reagent was added (5 μl per well) for 4 hrs, and OD 440 nm absorbance (which reflects the number of viable cells) was measured with the BioTek Synergy Mx Platereader.

[3] = target: T2, JARID1C (Homo sapiens, UniProt P41229); assay: FLAG-JARID1C histone demethylase assay with AlphaScreen detection; format: biochemical
T2 construct: FLAG (N); made in house; host or cells: Sf21 insect cells (baculovirus)
T2 sequence (P41229 whole entry): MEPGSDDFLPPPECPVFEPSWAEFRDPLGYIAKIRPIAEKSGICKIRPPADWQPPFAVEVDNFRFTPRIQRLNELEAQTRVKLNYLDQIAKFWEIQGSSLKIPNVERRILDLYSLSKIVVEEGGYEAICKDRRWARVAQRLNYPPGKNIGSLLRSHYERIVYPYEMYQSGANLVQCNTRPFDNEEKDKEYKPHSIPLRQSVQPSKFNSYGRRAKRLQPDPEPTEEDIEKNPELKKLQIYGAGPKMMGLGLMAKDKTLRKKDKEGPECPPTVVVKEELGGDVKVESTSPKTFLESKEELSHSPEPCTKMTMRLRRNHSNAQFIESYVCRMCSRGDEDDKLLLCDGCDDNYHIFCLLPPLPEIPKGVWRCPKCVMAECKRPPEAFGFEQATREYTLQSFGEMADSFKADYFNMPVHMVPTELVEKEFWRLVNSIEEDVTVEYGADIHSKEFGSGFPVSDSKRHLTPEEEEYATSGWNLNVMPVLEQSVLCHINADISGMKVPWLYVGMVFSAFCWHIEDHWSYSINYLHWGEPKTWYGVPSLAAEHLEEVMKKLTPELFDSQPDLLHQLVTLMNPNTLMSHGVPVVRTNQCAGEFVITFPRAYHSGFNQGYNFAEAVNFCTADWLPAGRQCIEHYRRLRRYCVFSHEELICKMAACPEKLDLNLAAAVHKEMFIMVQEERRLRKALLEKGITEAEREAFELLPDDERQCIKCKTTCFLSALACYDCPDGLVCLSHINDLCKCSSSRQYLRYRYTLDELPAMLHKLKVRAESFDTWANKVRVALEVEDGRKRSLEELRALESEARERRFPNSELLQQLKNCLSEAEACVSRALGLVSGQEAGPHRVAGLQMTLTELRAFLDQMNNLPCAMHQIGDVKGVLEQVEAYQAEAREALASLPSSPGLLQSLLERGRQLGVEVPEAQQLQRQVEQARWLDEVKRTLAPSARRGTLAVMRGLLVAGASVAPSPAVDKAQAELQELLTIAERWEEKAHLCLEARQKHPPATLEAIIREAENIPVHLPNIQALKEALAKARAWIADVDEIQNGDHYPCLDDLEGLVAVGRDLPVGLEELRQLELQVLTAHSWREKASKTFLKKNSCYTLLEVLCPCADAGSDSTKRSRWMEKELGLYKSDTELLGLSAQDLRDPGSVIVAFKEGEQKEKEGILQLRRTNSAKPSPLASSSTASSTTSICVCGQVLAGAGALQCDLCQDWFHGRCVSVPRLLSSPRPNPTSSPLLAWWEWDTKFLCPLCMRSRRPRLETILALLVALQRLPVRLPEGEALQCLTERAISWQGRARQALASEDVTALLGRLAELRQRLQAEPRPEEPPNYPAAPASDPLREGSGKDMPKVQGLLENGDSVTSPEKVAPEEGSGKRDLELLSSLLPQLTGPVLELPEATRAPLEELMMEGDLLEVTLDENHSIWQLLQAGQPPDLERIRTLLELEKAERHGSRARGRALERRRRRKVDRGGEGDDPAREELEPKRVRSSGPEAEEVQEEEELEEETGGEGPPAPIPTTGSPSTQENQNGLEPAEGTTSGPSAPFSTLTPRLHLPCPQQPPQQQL
Procedure: (§2) Histone demethylase assays were performed in 384 well white plates (Corning 3574). Demethylase buffer conditions for FLAG-JARID1B were as follows: 10 μM α-KG, 100 μM ascorbate, 50 μM (NH4)2Fe(SO4)2, 50 mM Hepes (pH 7.5), 0.01% (v/v) Tween 20, and 0.1% (w/v) bovine serum albumin. The demethylase reactions included 64 nM bio-H3K4me3 peptide alone or in the presence of 4 nM FLAG-JARID1B enzyme in a 10 μl reaction at 25° C. for 30 minutes. As a positive control, 64 nM bio-H3K4me2 peptide was assayed in the absence of enzyme. Assay conditions for FLAG-JARID1C is the same as for FLAG-JARID1B except that 20 nM enzyme was used. For FLAG-JARID1A, the demethylase buffer was similar to FLAG-JARID1B, except that 125 μM α-KG and 13 nM FLAG-JARID1A enzyme were used. The His-FLAG-UTX and FLAG-JMJD3 demethylase assays also employed the same buffer conditions as for FLAG-JARID1B, with 64 nM bio-H3K27me3 peptide assayed with or without 25 nM His-FLAG-UTX enzyme or 50 nM FLAG-JMJD3 (BPS Bioscience, 50115), and 64 nM bio-H3K27me2 peptide as a positive control. JARID1A, JARID1C, UTX, and JMJD3 histone demethylase assays proceeded at 37° C. for 1 hour.
(§3) The AlphaScreen General IgG (Protein A) detection kit was obtained from PerkinElmer. Demethylated H3K4 products were detected using AlphaScreen antibody/bead mix containing 7.5 mM ethylenediaminetetraacetic acid (EDTA) and 0.15 μg/ml anti-H3K4me1 antibody in a final volume of 20 μl. For detection of demethylated H3K27 products, the AlphaScreen antibody/bead mix containing 7.5 mM EDTA and 0.15 μg/ml anti-H3K27me2 antibody in a final volume of 20 μl. The luminescence signal was measured using the Envision (PerkinElmer) or Pherastar (BMG Labtech) Platereaders.

[4] = target: T3, JARID1A (Homo sapiens, UniProt P29375); assay: FLAG-JARID1A histone demethylase assay with AlphaScreen detection (HTS and dose response); format: biochemical
T3 construct: the high-throughput screen of the invention utilizes full length JARID1A or JARID1B; FLAG (N); made in house; host or cells: Sf21 insect cells (baculovirus)
T3 sequence (P29375 whole entry): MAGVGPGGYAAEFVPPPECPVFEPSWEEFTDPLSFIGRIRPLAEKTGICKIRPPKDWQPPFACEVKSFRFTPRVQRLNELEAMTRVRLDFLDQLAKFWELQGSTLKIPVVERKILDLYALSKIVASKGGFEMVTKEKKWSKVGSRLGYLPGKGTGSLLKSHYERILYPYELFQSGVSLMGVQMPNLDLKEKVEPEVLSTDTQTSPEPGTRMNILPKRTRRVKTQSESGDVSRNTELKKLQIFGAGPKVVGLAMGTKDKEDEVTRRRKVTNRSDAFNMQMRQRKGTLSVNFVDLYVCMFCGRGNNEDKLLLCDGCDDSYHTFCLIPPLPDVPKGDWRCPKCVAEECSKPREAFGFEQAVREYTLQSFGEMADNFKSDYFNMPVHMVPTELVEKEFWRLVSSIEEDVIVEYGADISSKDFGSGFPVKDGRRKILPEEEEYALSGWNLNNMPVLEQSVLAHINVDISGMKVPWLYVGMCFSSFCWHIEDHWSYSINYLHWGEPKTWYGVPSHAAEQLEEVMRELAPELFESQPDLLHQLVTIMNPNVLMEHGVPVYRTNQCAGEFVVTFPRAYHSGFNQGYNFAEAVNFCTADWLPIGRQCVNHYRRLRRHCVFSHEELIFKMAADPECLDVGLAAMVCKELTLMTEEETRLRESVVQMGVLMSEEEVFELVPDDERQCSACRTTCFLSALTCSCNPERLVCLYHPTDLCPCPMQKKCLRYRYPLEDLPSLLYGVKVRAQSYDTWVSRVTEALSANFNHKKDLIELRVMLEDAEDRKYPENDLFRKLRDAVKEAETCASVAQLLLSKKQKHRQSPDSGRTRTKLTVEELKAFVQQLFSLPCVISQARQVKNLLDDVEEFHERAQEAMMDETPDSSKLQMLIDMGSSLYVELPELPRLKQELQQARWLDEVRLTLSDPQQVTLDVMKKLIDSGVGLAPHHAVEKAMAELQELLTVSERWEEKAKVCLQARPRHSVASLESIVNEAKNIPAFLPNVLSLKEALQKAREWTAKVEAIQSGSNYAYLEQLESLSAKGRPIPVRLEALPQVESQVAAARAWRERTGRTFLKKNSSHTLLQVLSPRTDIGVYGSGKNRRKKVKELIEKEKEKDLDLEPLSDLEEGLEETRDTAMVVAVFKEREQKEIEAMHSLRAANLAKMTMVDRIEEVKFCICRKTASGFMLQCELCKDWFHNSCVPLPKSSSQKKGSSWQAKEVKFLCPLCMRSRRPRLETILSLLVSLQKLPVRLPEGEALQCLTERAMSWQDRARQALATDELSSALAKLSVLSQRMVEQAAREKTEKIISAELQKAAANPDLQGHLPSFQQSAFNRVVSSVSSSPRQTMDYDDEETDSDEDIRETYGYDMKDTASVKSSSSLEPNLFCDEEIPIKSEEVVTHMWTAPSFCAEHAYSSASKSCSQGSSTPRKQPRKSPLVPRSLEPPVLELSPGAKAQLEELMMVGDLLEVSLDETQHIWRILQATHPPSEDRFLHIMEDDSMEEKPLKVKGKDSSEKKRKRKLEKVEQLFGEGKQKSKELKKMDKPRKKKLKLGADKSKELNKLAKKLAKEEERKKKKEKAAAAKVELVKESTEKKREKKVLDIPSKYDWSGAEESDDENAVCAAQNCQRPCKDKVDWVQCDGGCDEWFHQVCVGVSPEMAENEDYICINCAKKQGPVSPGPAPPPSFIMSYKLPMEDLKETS
Procedure: as §2, §3
FLAG-JARID1A was screened against 9,600 compounds. These compound libraries were from the Yale Center for Molecular Discovery. The libraries screened include the MicroSource Gen-Plus, MicroSource Pure Natural Products, NIH Clinical Collection, Enzo Epigenetics, and ChemBridge MW-Set libraries. Compounds dissolved in dimethyl sulfoxide (DMSO) were pintooled into a 384 well plate containing bio-H3K4me3 peptide in demethylase buffer to a final concentration of 20 μM. The reactions were initiated by the addition of 13 nM FLAG-JARID1A, and detected as described above. To eliminate the false positive hits, a counterscreen was performed against bio-H3K4me2 in the absence of enzyme.

[5] = target: T4, JARID1B (Homo sapiens, UniProt Q9UGL1); assay: FLAG-JARID1B histone demethylase assay with AlphaScreen detection (HTS and dose response); format: biochemical;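 also: FLAG-tagged JARID1B at 4 nM acting on a biotinylated H3K4me3 peptide, demethylation read by AlphaScreen luminescence, with hits checked against bio-H3K4me2 without enzyme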
T4 construct: The FLAG tagged full length JARID1B enzyme was expressed in Sf21 insect cells using FLAG-JARID1B baculoviruses; FLAG (N); made in house; host or cells: Sf21 insect cells (baculovirus)
T4 sequence (Q9UGL1 whole entry): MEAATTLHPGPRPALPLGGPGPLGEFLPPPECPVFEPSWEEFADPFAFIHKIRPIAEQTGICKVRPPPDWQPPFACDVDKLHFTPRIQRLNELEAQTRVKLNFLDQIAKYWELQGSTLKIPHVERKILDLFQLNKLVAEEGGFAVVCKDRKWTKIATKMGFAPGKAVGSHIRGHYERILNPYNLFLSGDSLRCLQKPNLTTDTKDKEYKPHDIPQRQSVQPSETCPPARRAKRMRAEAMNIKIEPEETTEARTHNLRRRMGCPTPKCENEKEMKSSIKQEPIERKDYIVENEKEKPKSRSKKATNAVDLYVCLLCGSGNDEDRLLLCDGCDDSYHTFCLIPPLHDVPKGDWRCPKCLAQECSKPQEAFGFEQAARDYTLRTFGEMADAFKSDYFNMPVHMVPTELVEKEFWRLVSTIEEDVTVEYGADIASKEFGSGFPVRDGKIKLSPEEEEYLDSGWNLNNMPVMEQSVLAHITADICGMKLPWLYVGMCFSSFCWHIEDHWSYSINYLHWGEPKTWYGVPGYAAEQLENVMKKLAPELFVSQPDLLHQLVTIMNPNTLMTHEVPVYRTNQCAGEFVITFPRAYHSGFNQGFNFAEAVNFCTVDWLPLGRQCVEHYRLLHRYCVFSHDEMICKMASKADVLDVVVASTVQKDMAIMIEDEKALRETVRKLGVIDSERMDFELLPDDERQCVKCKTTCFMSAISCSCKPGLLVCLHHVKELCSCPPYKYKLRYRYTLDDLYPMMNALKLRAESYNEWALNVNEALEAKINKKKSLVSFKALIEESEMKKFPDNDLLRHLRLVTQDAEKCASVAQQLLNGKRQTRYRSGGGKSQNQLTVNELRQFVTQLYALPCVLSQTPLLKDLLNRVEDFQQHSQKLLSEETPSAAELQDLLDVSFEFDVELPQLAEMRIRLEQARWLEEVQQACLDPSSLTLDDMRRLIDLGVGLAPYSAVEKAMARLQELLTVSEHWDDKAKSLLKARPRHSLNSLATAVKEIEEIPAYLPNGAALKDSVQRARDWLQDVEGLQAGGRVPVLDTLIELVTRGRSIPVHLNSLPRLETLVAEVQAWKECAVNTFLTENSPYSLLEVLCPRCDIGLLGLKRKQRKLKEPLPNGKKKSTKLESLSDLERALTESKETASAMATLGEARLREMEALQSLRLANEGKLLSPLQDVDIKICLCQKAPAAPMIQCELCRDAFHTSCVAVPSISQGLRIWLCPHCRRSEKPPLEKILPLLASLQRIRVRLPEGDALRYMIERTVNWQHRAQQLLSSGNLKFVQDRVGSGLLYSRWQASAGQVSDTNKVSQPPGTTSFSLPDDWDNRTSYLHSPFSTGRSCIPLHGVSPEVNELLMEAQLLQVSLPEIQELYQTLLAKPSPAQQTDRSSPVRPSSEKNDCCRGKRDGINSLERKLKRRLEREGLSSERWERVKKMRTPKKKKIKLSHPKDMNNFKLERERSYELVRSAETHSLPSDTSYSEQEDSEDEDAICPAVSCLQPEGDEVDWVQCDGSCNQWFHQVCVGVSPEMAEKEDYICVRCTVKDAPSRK

[6] = system: SKBR3-R cells (trastuzumab resistant); assay: WST-1 cell proliferation assay; format: cell-based; details: 30 μM
[7] = target: T5, UTX (Homo sapiens, UniProt O15550); assay: His-FLAG-UTX H3K27me3 demethylase assay with AlphaScreen detection; format: biochemical; details: compound 10 μM, 64 nM bio-H3K27me3 peptide
T5 construct: His (N); FLAG (N); made in house; host or cells: Sf21 insect cells (baculovirus)
Procedure: as §2, with “The His-FLAG-UTX and FLAG-JMJD3 demethylase assays also employed the same buffer conditions as for FLAG-JARID1B, with 64 nM bio-H3K27me3 peptide assayed with or without 25 nM His-FLAG-UTX enzyme or 50 nM FLAG-JMJD3 (BPS Bioscience, 50115), and 64 nM bio-H3K27me2 peptide as a positive control. JARID1A, JARID1C, UTX, and JMJD3 histone demethylase assays proceeded at 37° C. for 1 hour.” left out
as §3, with “For detection of demethylated H3K27 products, the AlphaScreen antibody/bead mix containing 7.5 mM EDTA and 0.15 μg/ml anti-H3K27me2 antibody in a final volume of 20 μl.” left out

[8] = system: MCF10A cells; assay: WST-1 cell proliferation assay; format: cell-based, human; details: 10 μM, 72 hrs
Procedure: as §1

[9] = system: MCF7 cells; assay: WST-1 cell proliferation assay; format: cell-based, human; details: 10 μM, 72 hrs
Procedure: as §1

[10] = system: UACC-812 cells; assay: WST-1 cell proliferation assay; format: cell-based, human; details: 10 μM, 72 hrs
Procedure: as §1

[11] = system: 1445 mouse melanoma cells; assay: WST-1 cell proliferation assay; format: cell-based; details: 0, 10 and 30 μM
Procedure: as §1
A panel of mouse and human melanoma cells was treated with 0, 10 and 30 μM PBIT and their proliferation rates were assessed using WST-1 assays.

[12] = compound 10 μM, 64 nM bio-H3K4me3 peptide

## Cc1ccc(-n2sc3ccccc3c2=O)cc1 [PBIT, 2-4(4-methylphenyl)-1,2-benzisothiazol-3(2H)-one]
[1]
  IC50: 28 µM
[2]
  cell proliferation (WST-1): small inhibitory effects
[3]; [12]
  JARID1C demethylase activity: inhibited
[3]; dose response, read-out: IC50 against JARID1C
  IC50: 4.9 µM
[4]; [12]
  JARID1A demethylase activity: inhibited
[4]; dose response, 50 μM Fe (II), read-out: IC50 against JARID1A
  IC50: 6 µM and ~6 µM
[5]
  inhibition of JARID1B (maximum): up to 95%
[5]; Fe (II) concentration not stated, read-out: IC50 against JARID1B
  IC50: ~3 µM
[5]; [12]
  JARID1B demethylase activity: inhibited
[5]; dose response at 15 μM (low) Fe (II), read-out: IC50 (μM) low Fe (II)
  IC50: 3.17 µM
[5]; dose response at 50 μM (high) Fe (II), read-out: IC50 (μM) high Fe (II)
  IC50: 2.78 µM
[6]
  cell proliferation (WST-1): killed most
[7]
  UTX demethylase activity: minimal effect; also recorded: did not inhibit
[8]
  cell proliferation (WST-1): minimal toxicity
[9]
  cell proliferation (WST-1): did not inhibit growth; also recorded: minimal toxicity
[10]
  cell proliferation (WST-1): killed most
[11]
  sensitivity of proliferation to treatment (WST-1): most sensitive
